Test results taken from US11591323B2, “Muscarinic agonists as non-steroidal and non-opioid analgesics and methods of use thereof” (Barry University, priority 2019, dated 2023).
Read-outs that look alike come from different tables or passages of the source.

Key:
Parameters in all cases: host or cells: CHO cells, stably transfected
M1 muscarinic receptor [1] = target: T1, M1 muscarinic receptor (Homo sapiens, UniProt P11229); assay: [3H]NMS competition binding, M1 CHO membranes; conditions: competition with 1 nM [3H]NMS; read-out: Inhibition constants (Ki) as negative logarithms, M1 (converted)
T1 sequence (P11229 1-460): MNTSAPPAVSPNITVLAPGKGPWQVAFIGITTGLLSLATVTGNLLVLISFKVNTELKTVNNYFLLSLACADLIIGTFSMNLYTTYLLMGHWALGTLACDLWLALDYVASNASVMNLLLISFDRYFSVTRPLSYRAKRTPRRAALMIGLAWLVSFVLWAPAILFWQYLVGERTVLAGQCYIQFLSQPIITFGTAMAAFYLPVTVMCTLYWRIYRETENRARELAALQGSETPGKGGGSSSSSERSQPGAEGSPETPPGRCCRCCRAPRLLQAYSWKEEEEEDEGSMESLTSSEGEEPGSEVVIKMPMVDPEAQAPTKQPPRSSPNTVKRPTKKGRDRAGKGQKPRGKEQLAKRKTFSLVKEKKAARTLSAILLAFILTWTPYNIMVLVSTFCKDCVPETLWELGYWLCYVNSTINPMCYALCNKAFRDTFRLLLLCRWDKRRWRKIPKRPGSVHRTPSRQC

M2 muscarinic receptor = target: T2, M2 muscarinic receptor (Homo sapiens, UniProt P08172); assay: [3H]NMS competition binding, M2 CHO membranes; conditions: competition with 1 nM [3H]NMS; read-out: Inhibition constants (Ki) as negative logarithms, M2 (converted)
T2 sequence (P08172 1-466): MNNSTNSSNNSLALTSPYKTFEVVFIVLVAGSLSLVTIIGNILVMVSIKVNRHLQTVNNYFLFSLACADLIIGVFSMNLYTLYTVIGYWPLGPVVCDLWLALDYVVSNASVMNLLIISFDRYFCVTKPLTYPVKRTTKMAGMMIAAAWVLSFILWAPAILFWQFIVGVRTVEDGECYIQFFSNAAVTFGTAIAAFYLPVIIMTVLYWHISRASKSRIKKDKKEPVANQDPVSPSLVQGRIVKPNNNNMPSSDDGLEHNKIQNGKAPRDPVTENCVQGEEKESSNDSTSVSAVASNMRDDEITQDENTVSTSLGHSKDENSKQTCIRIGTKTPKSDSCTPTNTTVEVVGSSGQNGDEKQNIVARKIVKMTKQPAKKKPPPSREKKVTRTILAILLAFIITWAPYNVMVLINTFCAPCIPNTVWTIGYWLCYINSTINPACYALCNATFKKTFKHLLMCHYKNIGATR

M3 muscarinic receptor = M3 muscarinic receptor (Homo sapiens, UniProt P20309); assay: [3H]NMS competition binding, M3 CHO membranes; conditions: competition with 1 nM [3H]NMS; read-out: Inhibition constants (Ki) as negative logarithms, M3 (converted)
M4 muscarinic receptor [2] = target: T3, M4 muscarinic receptor (Homo sapiens, UniProt P08173); assay: [3H]NMS competition binding, M4 CHO membranes; conditions: at M4 receptors; read-out: Inhibition constants Ki
T3 sequence (P08173 1-479): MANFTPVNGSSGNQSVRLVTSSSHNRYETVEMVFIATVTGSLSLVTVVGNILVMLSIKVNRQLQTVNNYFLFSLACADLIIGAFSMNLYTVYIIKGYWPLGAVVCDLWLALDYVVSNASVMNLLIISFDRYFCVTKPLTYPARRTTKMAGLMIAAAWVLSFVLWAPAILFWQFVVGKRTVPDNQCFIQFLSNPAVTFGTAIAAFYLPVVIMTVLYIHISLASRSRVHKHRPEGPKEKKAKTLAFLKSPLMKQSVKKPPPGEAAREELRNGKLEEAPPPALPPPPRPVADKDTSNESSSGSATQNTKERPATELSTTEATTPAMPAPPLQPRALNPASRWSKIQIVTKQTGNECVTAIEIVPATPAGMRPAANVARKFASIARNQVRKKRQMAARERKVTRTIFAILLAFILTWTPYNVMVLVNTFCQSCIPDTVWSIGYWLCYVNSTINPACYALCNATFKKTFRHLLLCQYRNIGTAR

M1 muscarinic receptor [3] = target: T1, M1 muscarinic receptor; assay: accumulation of inositol phosphates IPX, M1 CHO cells (M1Gq); format: cell-based
M4 muscarinic receptor [4] = target: T3, M4 muscarinic receptor; assay: inhibition of forskolin-stimulated cAMP, M4 CHO cells (M4Gi); format: cell-based; conditions: for Kd: read-out: pKA (converted); for EC50: read-out: pEC50 (converted)
M5 muscarinic receptor = target: T4, M5 muscarinic receptor (Homo sapiens, UniProt P08912); assay: accumulation of IPX, M5 CHO cells (M5Gq); format: cell-based; conditions: for EC50: read-out: pEC50 (converted)
T4 sequence (P08912 1-532): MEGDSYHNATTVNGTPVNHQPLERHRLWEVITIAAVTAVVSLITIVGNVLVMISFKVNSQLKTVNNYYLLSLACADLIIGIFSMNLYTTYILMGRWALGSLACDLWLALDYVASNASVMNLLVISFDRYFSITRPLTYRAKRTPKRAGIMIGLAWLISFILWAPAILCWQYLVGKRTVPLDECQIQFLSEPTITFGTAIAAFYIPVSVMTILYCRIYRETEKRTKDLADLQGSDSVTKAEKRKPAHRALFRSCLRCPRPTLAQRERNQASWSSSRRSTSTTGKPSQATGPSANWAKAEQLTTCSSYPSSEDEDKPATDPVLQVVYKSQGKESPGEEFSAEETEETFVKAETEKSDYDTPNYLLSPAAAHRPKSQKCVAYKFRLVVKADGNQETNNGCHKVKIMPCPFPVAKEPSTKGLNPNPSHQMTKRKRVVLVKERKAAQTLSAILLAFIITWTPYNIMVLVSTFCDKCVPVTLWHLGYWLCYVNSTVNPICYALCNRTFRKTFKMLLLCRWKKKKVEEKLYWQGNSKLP

[5] = M5 (↑IPX), preferential response, Table 7

M3 muscarinic receptor, sequence (P20309 whole entry): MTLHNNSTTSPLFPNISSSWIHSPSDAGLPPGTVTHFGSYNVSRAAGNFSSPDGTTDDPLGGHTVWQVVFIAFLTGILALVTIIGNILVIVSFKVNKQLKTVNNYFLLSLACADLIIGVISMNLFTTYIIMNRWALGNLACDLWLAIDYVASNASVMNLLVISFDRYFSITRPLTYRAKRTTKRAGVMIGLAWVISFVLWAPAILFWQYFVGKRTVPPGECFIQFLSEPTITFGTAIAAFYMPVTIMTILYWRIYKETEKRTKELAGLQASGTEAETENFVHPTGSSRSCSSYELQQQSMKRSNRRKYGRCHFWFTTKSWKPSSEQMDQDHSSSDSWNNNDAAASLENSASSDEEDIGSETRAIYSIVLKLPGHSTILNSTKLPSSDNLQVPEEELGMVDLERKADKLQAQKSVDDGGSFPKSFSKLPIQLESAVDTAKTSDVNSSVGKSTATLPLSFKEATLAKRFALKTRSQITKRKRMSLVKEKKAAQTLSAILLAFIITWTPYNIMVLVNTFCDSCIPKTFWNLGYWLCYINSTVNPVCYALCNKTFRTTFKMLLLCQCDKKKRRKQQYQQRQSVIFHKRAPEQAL

C1=CCN(Cc2cccs2)CC1.Cl [Compound 6A, 1-[(thiophen-2-yl)methyl]-1,2,3,6-tetrahydropyridin-1-ium chloride]
Ki (M1 muscarinic receptor [1]): 44.7 µM
Ki (M2 muscarinic receptor): 42.7 µM
Ki (M3 muscarinic receptor): 37.2 µM
Ki (M4 muscarinic receptor [2]): 54 µM
E′MAX (M1 muscarinic receptor [3]; M1 (↑IPX), preferential response, Table 7): 2.0 ± 0.2 fold over basal
τ (M1 muscarinic receptor [3]; M1 (↑IPX), preferential response, Table 7, operational efficacy): 0.03 ± 0.01
Kd (M1 muscarinic receptor [3]; M1 (↑IPX), preferential response, Table 7, operational model, read-out: pKA (converted)): 7.94 µM
EC50 (M1 muscarinic receptor [3]; M1 (↑IPX), preferential response, Table 7, read-out: pEC50 (converted)): 7.94 µM
RAi (M1 muscarinic receptor [3]; M1 (↑IPX), preferential response, relative to carbachol, Tables 2, 3, 7): 0.0010 ± 0.0001
Δlog(τ/KA) (M1 muscarinic receptor [3]; M1 (↑IPX), preferential response, to carbachol, Tables 2, 3, 7): 2.98 ± 0.26
E′MAX (M1 muscarinic receptor [3]; M1Gq (↑IPX), Table 8): 2.0 ± 0.2 fold increase
pEC50 (M1 muscarinic receptor [3]; M1Gq (↑IPX), Table 8): 5.1 ± 0.1
pKA (M1 muscarinic receptor [3]; M1Gq (↑IPX), Table 8): 5.1 ± 0.2
τ (M1 muscarinic receptor [3]; M1Gq (↑IPX), Table 8): 0.03 ± 0.01
RAi (M1 muscarinic receptor [3]; M1Gq (↑IPX), Table 8, relative to carbachol): 0.0011 ± 0.0007
Δlog(τ/KA) (M1 muscarinic receptor [3]; M1Gq (↑IPX), Table 8, to carbachol): 2.96 ± 0.86
Emax (M4 muscarinic receptor [4]; CHO, M4 (↓cAMP), preferential response, Table 7, read-out: E′MAX): 25 ± 2%
τ (M4 muscarinic receptor [4]; M4 (↓cAMP), preferential response, Table 7, operational efficacy): 0.39 ± 0.04
Kd (M4 muscarinic receptor [4]; M4 (↓cAMP), preferential response, Table 7, operational model): 6.31 µM
EC50 (M4 muscarinic receptor [4]; M4 (↓cAMP), preferential response, Table 7): 4.27 µM
RAi (M4 muscarinic receptor [4]; M4 (↓cAMP), preferential response, relative to carbachol, Tables 2, 3, 7): 0.0046 ± 0.0004
Δlog(τ/KA) (M4 muscarinic receptor [4]; M4 (↓cAMP), preferential response, to carbachol, Tables 2, 3, 7): 2.15 ± 0.16
E′MAX (M4 muscarinic receptor [4]; M4Gi (↓cAMP), Table 8): 25 ± 2 % inhibition
τ (M4 muscarinic receptor [4]; M4Gi (↓cAMP), Table 8): 0.39 ± 0.04
RAi (M4 muscarinic receptor [4]; M4Gi (↓cAMP), Table 8, relative to carbachol): 0.0046 ± 0.0004
Δlog(τ/KA) (M4 muscarinic receptor [4]; M4Gi (↓cAMP), Table 8, to carbachol): 2.15 ± 0.16
EC50 (M4 muscarinic receptor [4]; M4Gi (↓cAMP), Table 8): 8.51 µM
Kd (M4 muscarinic receptor [4]; M4Gi (↓cAMP), Table 8): 12.6 µM
E′MAX (M5 muscarinic receptor; [5]): 1.19 ± 0.04 fold over basal
EC50 (M5 muscarinic receptor; [5]): 1.58 µM
RAi (M5 muscarinic receptor; M5 (↑IPX), preferential response, relative to carbachol, Tables 2, 3, 7): 0.0025 ± 0.0008
E′MAX (M5 muscarinic receptor; M5Gq (↑IPX), Table 8): 1.16 ± 0.04 fold over basal
RAi (M5 muscarinic receptor; M5Gq (↑IPX), Table 8, relative to carbachol): 0.0023 ± 0.0007
EC50 (M5 muscarinic receptor; M5Gq (↑IPX), Table 8): 1.58 µM
